Measured values taken from patent US7211572B2 (Japan Tobacco Inc., priority 2003, dated 2007).
Counter-ions that a name gives are not always drawn.

molecular target: T1, HIV integrase (Human immunodeficiency virus type 1 group M subtype B, UniProt P12497, F1332H); assay: Determination of enzyme (HIV integrase) inhibitory activity; assay type: biochemical; settings: recombinant HIV integrase (F185H), strand transfer ELISA, absorbance at 450 nm
T1 construct: HIV integrase full length gene; made in house; host or cells: Escherichia coli BL21(DE3), plasmid pET21a-INH
How it was run: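 Full-length integrase with F185H, expressed in E. coli and purified, was reacted for 60 min at 37 °C with compound and biotinylated donor DNA bound to streptavidin plates. Target DNA was added for 10 min, then anti-digoxigenin-peroxidase detection at A450; IC50 from % inhibition versus enzyme-free blank.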

`O=c1c(Br)cn2ccn(Cc3cccc(Cl)c3)c(=O)c2c1O` [Example 94, 7-bromo-2-(3-chlorobenzyl)-9-hydroxy-2H-pyrido[1,2-a]pyrazine-1,8-dione hydrochloride] and `CC(C)c1cn2ccn(Cc3cccc(Cl)c3)c(=O)c2c(O)c1=O` [Example 104, 2-(3-chlorobenzyl)-9-hydroxy-7-isopropyl-2H-pyrido[1,2-a]pyrazine-1,8-dione hydrochloride] fall in the same range of IC50: 10 to 100 nM for the first, 10 to 100 nM for the second.

First: O=c1ccn2ccn(CCCc3c(F)cccc3Cl)c(=O)c2c1O [Example 95, 2-[3-(2-chloro-6-fluorophenyl)propyl]-9-hydroxy-2H-pyrido[1,2-a]pyrazine-1,8-dione hydrochloride]
Second: Cn1cc2c(c(O)c1=O)C(=O)N(CCCc1c(F)cccc1Cl)CC2 [Example 122, 2-[3-(2-chloro-6-fluorophenyl)propyl]-8-hydroxy-6-methyl-2,3,4,6-tetrahydro-2,6-naphthyridine-1,7-dione]
The IC50 of the first is higher: 10 to 100 nM for the first, < 10 nM for the second.

First: O=c1c(-c2ccccc2)cn2ccn(Cc3cccc(Cl)c3)c(=O)c2c1O [Example 96, 2-(3-chlorobenzyl)-9-hydroxy-7-phenyl-2H-pyrido[1,2-a]pyrazine-1,8-dione hydrochloride]
Second: O=c1c(-c2cccc(Cl)c2)cn2ccn(Cc3cccc(Cl)c3)c(=O)c2c1O [Example 112, 2-(3-chlorobenzyl)-7-(3-chlorophenyl)-9-hydroxy-2H-pyrido[1,2-a]pyrazine-1,8-dione hydrochloride]
The IC50 of the first is lower: < 10 nM for the first, 10 to 100 nM for the second.

`CN(C)C(=O)c1cn(Cc2cccc(Cl)c2)c(=O)c2c(O)c(=O)ccn12` [Example 97, N,N-dimethyl-2-(3-chlorobenzyl)-9-hydroxy-1,8-dioxo-1,8-dihydro-2H-pyrido[1,2-a]pyrazine-4-carboxamide] and `CC(=O)c1cn(Cc2cccc(Cl)c2)c(=O)c2c(O)c(=O)ccn12` [Example 105, 4-acetyl-2-(3-chlorobenzyl)-9-hydroxy-2H-pyrido[1,2-a]pyrazine-1,8-dione] fall in the same range of IC50: 10 to 100 nM for the first, 10 to 100 nM for the second.

`O=C(O)c1cn(Cc2cccc(Cl)c2)c(=O)c2c(O)c(=O)ccn12` [Example 98, 2-(3-chlorobenzyl)-9-hydroxy-1,8-dioxo-1,8-dihydro-2H-pyrido[1,2-a]pyrazine-4-carboxylic acid] and `CC(O)c1cn(Cc2cccc(Cl)c2)c(=O)c2c(O)c(=O)ccn12` (centres unmarked) [Example 103, 2-(3-chlorobenzyl)-9-hydroxy-4-(1-hydroxyethyl)-2H-pyrido[1,2-a]pyrazine-1,8-dione] fall in the same range of IC50: 10 to 100 nM for the first, 10 to 100 nM for the second.

First: O=c1c(O)c2c(=O)n(Cc3cccc(Cl)c3)ccn2c2ccccc12 [Example 99, 3-(3-chlorobenzyl)-5-hydroxy-3H-pyrazino[1,2-a]quinoline-4,6-dione hydrochloride]
Second: O=c1c(-c2ccccc2Cl)cn2ccn(Cc3cccc(Cl)c3)c(=O)c2c1O [Example 114, 2-(3-chlorobenzyl)-7-(2-chlorophenyl)-9-hydroxy-2H-pyrido[1,2-a]pyrazine-1,8-dione hydrochloride]
The IC50 of the first is higher: 10 to 100 nM for the first, < 10 nM for the second.

First: O=c1ncn2ccn(Cc3cccc(Cl)c3)c(=O)c2c1O [Example 100, 2-(3-chlorobenzyl)-9-hydroxy-2H-pyrazino[1,2-c]pyrimidine-1,8-dione hydrochloride]
Second: O=c1c(-c2ccccn2)cn2ccn(Cc3cccc(Cl)c3)c(=O)c2c1O [Example 117, 2-(3-chlorobenzyl)-9-hydroxy-7-(pyridin-2-yl)-2H-pyrido[1,2-a]pyrazine-1,8-dione hydrochloride]
The IC50 of the first is higher: 10 to 100 nM for the first, < 10 nM for the second.

`O=Cc1cn(Cc2cccc(Cl)c2)c(=O)c2c(O)c(=O)ccn12` [Example 101, 2-(3-chlorobenzyl)-9-hydroxy-1,8-dioxo-1,8-dihydro-2H-pyrido[1,2-a]pyrazine-4-carbaldehyde] and `O=c1ccn2c(CO)cn(Cc3cccc(Cl)c3)c(=O)c2c1O` [Example 102, 2-(3-chlorobenzyl)-9-hydroxy-4-hydroxymethyl-2H-pyrido[1,2-a]pyrazine-1,8-dione] fall in the same range of IC50: 10 to 100 nM for the first, 10 to 100 nM for the second.

Compared with `Cn1cc2c(c(O)c1=O)C(=O)N(Cc1cccc(Cl)c1)CC2` [Example 106, 2-(3-chlorobenzyl)-8-hydroxy-6-methyl-2,3,4,6-tetrahydro-2,6-naphthyridine-1,7-dione], `Cn1cc2c(c(O)c1=O)C(=O)N(Cc1ccc(Cl)c(Cl)c1)CC2` [Example 121, 2-(3,4-dichlorobenzyl)-8-hydroxy-6-methyl-2,3,4,6-tetrahydro-2,6-naphthyridine-1,7-dione] is lower in IC50: 10 to 100 nM for the first, < 10 nM for the second.

First: N#Cc1cn(Cc2cccc(Cl)c2)c(=O)c2c(O)c(=O)ccn12 [Example 107, 2-(3-chlorobenzyl)-9-hydroxy-1,8-dioxo-1,8-dihydro-2H-pyrido[1,2-a]pyrazine-4-carbonitrile]
Second: O=c1c(-c2ccco2)cn2ccn(Cc3cccc(Cl)c3)c(=O)c2c1O [Example 120, 2-(3-chlorobenzyl)-7-(furan-2-yl)-9-hydroxy-2H-pyrido[1,2-a]pyrazine-1,8-dione hydrochloride]
The IC50 of the first is higher: 10 to 100 nM for the first, < 10 nM for the second.

`O=C1c2c(O)c(=O)ncn2CCN1Cc1cccc(Cl)c1` [Example 108, 2-(3-chlorobenzyl)-9-hydroxy-3,4-dihydro-2H-pyrazino[1,2-c]pyrimidine-1,8-dione] and `O=C1c2c(O)c(=O)c3ccccc3n2CCN1Cc1cccc(Cl)c1` [Example 111, 3-(3-chlorobenzyl)-5-hydroxy-2,3-dihydro-1H-pyrazino[1,2-a]quinoline-4,6-dione] fall in the same range of IC50: 10 to 100 nM for the first, 10 to 100 nM for the second.

Compared with `CS(=O)(=O)Oc1c(=O)c(Br)cn2ccn(Cc3cccc(Cl)c3)c(=O)c12` [Example 109, 7-bromo-2-(3-chlorobenzyl)-1,8-dioxo-1,8-dihydro-2H-pyrido[1,2-a]pyrazin-9-yl methanesulfonate], `CC(C)(C)C(O)c1cn2ccn(Cc3cccc(Cl)c3)c(=O)c2c(O)c1=O` (centres unmarked) [Example 118, 2-(3-chlorobenzyl)-9-hydroxy-7-(1-hydroxy-2,2-dimethylpropyl)-2H-pyrido[1,2-a]pyrazine-1,8-dione hydrochloride] is lower in IC50: 100 to 1000 nM for the first, 10 to 100 nM for the second.

First: O=C1c2c(O)c(=O)c(Br)cn2CC(O)N1Cc1cccc(Cl)c1 (centres unmarked) [Example 110, 7-bromo-2-(3-chlorobenzyl)-3,9-dihydroxy-3,4-dihydro-2H-pyrido[1,2-a]pyrazine-1,8-dione hydrochloride]
Second: O=c1c(-c2cccnc2)cn2ccn(Cc3cccc(Cl)c3)c(=O)c2c1O [Example 115, 2-(3-chlorobenzyl)-9-hydroxy-7-(pyridin-3-yl)-2H-pyrido[1,2-a]pyrazine-1,8-dione hydrochloride]
The IC50 of the first is higher: 100 to 1000 nM for the first, < 10 nM for the second. The second is the more potent here.

First: O=c1c(-c2ccc(Cl)cc2)cn2ccn(Cc3cccc(Cl)c3)c(=O)c2c1O [Example 113, 2-(3-chlorobenzyl)-7-(4-chlorophenyl)-9-hydroxy-2H-pyrido[1,2-a]pyrazine-1,8-dione hydrochloride]
Second: O=c1c(-c2ccncc2)cn2ccn(Cc3cccc(Cl)c3)c(=O)c2c1O [Example 116, 2-(3-chlorobenzyl)-9-hydroxy-7-(pyridin-4-yl)-2H-pyrido[1,2-a]pyrazine-1,8-dione hydrochloride]
The IC50 of the first is higher: 10 to 100 nM for the first, < 10 nM for the second.

Molecule `O=c1c(-c2ccccc2)cn2c(CC3CCCCC3)cn(Cc3cccc(Cl)c3)c(=O)c2c1O` [Example 119, 2-(3-chlorobenzyl)-4-cyclohexylmethyl-9-hydroxy-7-phenyl-2H-pyrido[1,2-a]pyrazine-1,8-dione hydrochloride] has an IC50 of 100 to 1000 nM.
